The results in this text go back to ChEMBL document CHEMBL1154345, “Discovery of tricyclic 5,6-dihydro-1H-pyridin-2-ones as novel, potent, and orally bioavailable inhibitors of HCV NS5B polymerase” (Bioorg Med Chem Lett, 2009).

For series [1], the system named is Hepatitis C virus. The experiment in a line: microbe, parasite or virus in culture. In kind it is functional, organism-based, Hepacivirus hominis, genotype 1b, Huh-luc/neo-ET. Conditions: Hepatitis C virus, genotype 1b, Huh-luc/neo-ET, 72 h.
Description: Antiviral activity against HCV-1b infected human Huh-luc/neo-ET replicon cells after 72 hrs by luciferase based replicon assay
Series [2] can be described thus: in vitro. The conditions noted are these: human, t1/2.
The nature of series [3]: in vitro. Conditions: human.
Description: Metabolic stability in human liver microsomes assessed as compound remaining after 60 mins at 1 uM
For series [4], the system named is Hepatitis C virus. Briefly: microbe, parasite or virus in culture. The class given is functional, organism-based, Hepacivirus hominis, subtype 1a, Huh-lunet. The conditions noted are these: Hepatitis C virus, subtype 1a, Huh-lunet, 96 h.
Description: Antiviral activity against HCV-1a infected in human Huh-lunet cells after 4 days by luciferase based replicon assay

Consider `CS(=O)(=O)Nc1ccc2c(c1)S(=O)(=O)N=C(C1=C(O)[C@@H]3C4CCC(CC4)[C@@H]3N(Cc3cccc(F)c3F)C1=O)N2`, for which the EC50 (commonly the concentration giving half of the maximal effect) in series [1] was found to be 82 nM. In addition, in series [2] (liver microsomes), the half-life (commonly the time needed for the level to fall by half in the phase considered) at 1 µM was over 1 h. Moreover, the share remaining (in general, what is left of the initial amount, in per cent) at 1 h, 1 µM in series [3] (liver microsomes) was determined as 75%.

Regarding `CS(=O)(=O)Nc1ccc2c(c1)S(=O)(=O)N=C(C1=C(O)[C@@H]3C4CCC(CC4)[C@@H]3N(Cc3ccccc3Cl)C1=O)N2`, the EC50 in series [4] stood at 660 nM; in series [1], 17 nM. In series [2] (liver microsomes), this molecule had a half-life at 1 µM of over 1 h. In addition, in series [3] (liver microsomes), the share remaining at 1 h, 1 µM was 100%.

`CS(=O)(=O)Nc1ccc2c(c1)S(=O)(=O)N=C(C1=C(O)[C@@H]3C4CCC(CC4)[C@@H]3N(Cc3ccc(Cl)cc3)C1=O)N2`: the figures for the EC50 in series [4] and in series [1] were 250 nM and 31 nM, respectively. Moreover, the half-life at 1 µM in series [2] (liver microsomes) was over 1 h. In series [3] (liver microsomes), this molecule yielded a fraction remaining at 1 h, 1 µM of 100%.

`CS(=O)(=O)Nc1ccc2c(c1)S(=O)(=O)N=C(C1=C(O)[C@@H]3[C@@H]4CC[C@@H](C4)[C@@H]3N(Cc3ccc(F)c(Cl)c3)C1=O)N2`: the EC50 in series [4] worked out at 200 nM; in series [1], 4 nM. The half-life at 1 µM in series [2] (liver microsomes) was over 1 h. The amount remaining at 1 h, 1 µM in series [3] (liver microsomes) was found to be 100%.

As for `Cc1cc(CN2C(=O)C(C3=Nc4ccc(NS(C)(=O)=O)cc4S(=O)(=O)N3)=C(O)[C@@H]3[C@@H]4CC[C@@H](C4)[C@@H]32)ccc1F`, the half-maximal effective concentration (EC50) in series [4] was found to be 87 nM; in series [1], 9 nM. The molecule also came in with a half-life at 1 µM in series [2] (liver microsomes) of over 1 h. In series [3] (liver microsomes), this molecule displayed a share remaining at 1 h, 1 µM of 65%.

In the case of `CS(=O)(=O)Nc1ccc2c(c1)S(=O)(=O)NC(C1=C(O)[C@@H]3[C@@H]4CC[C@@H](C4)[C@@H]3N(Cc3ccc(F)c(F)c3)C1=O)=N2`, the EC50 in series [4] worked out at 110 nM; in series [1] it was 13 nM. Further, the half-life at 1 µM in series [2] (liver microsomes) was over 1 h. For the same molecule, the fraction remaining at 1 h, 1 µM in series [3] (liver microsomes) was determined as 97%.

Regarding `CS(=O)(=O)Nc1ccc2c(c1)S(=O)(=O)NC(C1=C(O)[C@@H]3[C@@H]4CC[C@@H](C4)[C@@H]3N(Cc3ccccc3)C1=O)=N2`, the values for the EC50 in series [4] and in series [1] were 340 nM and 10 nM, respectively. Besides, the half-life at 1 µM in series [2] (liver microsomes) is over 1 h. In series [3] (liver microsomes), this molecule gave a fraction remaining at 1 h, 1 µM of 90%.

As to `CS(=O)(=O)Nc1ccc2c(c1)S(=O)(=O)NC(C1=C(O)[C@@H]3[C@@H]4CC[C@@H](C4)[C@@H]3N(Cc3cccc(F)c3)C1=O)=N2`, the EC50 in series [4] came to 290 nM; in series [1], 22 nM. In addition, in series [2] (microsomes), the half-life at 1 µM was over 1 h. Besides, in series [3] (microsomes), the amount remaining at 1 h, 1 µM turned out to be 96%.

`CS(=O)(=O)Nc1ccc2c(c1)S(=O)(=O)N=C(C1=C(O)[C@@H]3[C@H]4CC[C@H](C4)[C@@H]3N(Cc3ccc(F)c(F)c3F)C1=O)N2`: the EC50 was 260 nM in series [4] and 15 nM in series [1]. This molecule came in with a half-life at 1 µM in series [2] (liver microsomes) of over 1 h. This molecule also came in with a fraction remaining at 1 h, 1 µM in series [3] (liver microsomes) of 100%.

In the case of `CS(=O)(=O)Nc1ccc2c(c1)S(=O)(=O)N=C(C1=C(O)[C@@H]3[C@H]4CC[C@H](C4)[C@@H]3N(Cc3ccc(F)c(Cl)c3)C1=O)N2`, the EC50 in series [4] was determined as 32 nM; in series [1] it was 10 nM. The same molecule showed a half-life at 1 µM in series [2] (liver microsomes) of over 1 h. In series [3] (liver microsomes), this molecule yielded an amount remaining at 1 h, 1 µM of 87%.

As to `COc1cc(CN2C(=O)C(C3=NS(=O)(=O)c4cc(NS(C)(=O)=O)ccc4N3)=C(O)[C@@H]3[C@H]4CC[C@H](C4)[C@@H]32)ccc1F`, the values for the EC50 in series [4] and in series [1] were 46 nM and 10 nM, respectively. Also, the half-life at 1 µM in series [2] (microsomes) was over 1 h. In series [3] (microsomes), this molecule yielded an amount remaining at 1 h, 1 µM of 66%.

Regarding `CS(=O)(=O)Nc1ccc2c(c1)S(=O)(=O)N=C(C1=C(O)[C@@H]3[C@H]4CC[C@H](C4)[C@@H]3N(Cc3ccc(F)cc3F)C1=O)N2`, the EC50 in series [4] came to 290 nM; in series [1], 10 nM. Further, in series [2] (microsomes), the half-life at 1 µM is over 1 h. Also, the amount remaining at 1 h, 1 µM in series [3] (microsomes) came to 100%.

Consider `CS(=O)(=O)Nc1ccc2c(c1)S(=O)(=O)N=C(C1=C(O)[C@@H]3[C@H]4CC[C@H](C4)[C@@H]3N(Cc3ccc(F)cc3Cl)C1=O)N2`, for which the values for the EC50 in series [4] and in series [1] were 33 nM and 5 nM, respectively. The molecule also showed a half-life at 1 µM in series [2] (microsomes) of over 1 h. This molecule also returned a fraction remaining at 1 h, 1 µM in series [3] (microsomes) of 98%.

Regarding `CS(=O)(=O)Nc1ccc2c(c1)S(=O)(=O)N=C(C1=C(O)[C@@H]3[C@H]4CC[C@H](C4)[C@@H]3N(Cc3cccc(F)c3)C1=O)N2`, the results for the concentration giving a half-maximal response (EC50) in series [4] and in series [1] were 330 nM and 10 nM, respectively. This molecule had a half-life at 1 µM in series [2] (microsomes) of over 1 h. This molecule had an amount remaining at 1 h, 1 µM in series [3] (microsomes) of 85%.

Take `CS(=O)(=O)Nc1ccc2c(c1)S(=O)(=O)N=C(C1=C(O)[C@@H]3[C@H]4CC[C@H](C4)[C@@H]3N(Cc3ccc(Cl)cc3)C1=O)N2`: the EC50 stood at 760 nM in series [4] and 203 nM in series [1]. In addition, the half-life at 1 µM in series [2] (microsomes) is over 1 h. Further, the share remaining at 1 h, 1 µM in series [3] (microsomes) was determined as 84%.

As to `CS(=O)(=O)Nc1ccc2c(c1)S(=O)(=O)N=C(C1=C(O)[C@@H]3C4CCC(CC4)[C@@H]3N(CC3CCCCC3)C1=O)N2`, the EC50 in series [4] came to 55 nM; in series [1] it was 11 nM. The half-life at 1 µM in series [2] (microsomes) turned out to be 0.833 h.

Regarding `CS(=O)(=O)Nc1ccc2c(c1)S(=O)(=O)N=C(C1=C(O)[C@@H]3C4CCC(CC4)[C@@H]3N(CC(F)(F)F)C1=O)N2`, the values for the EC50 in series [4] and in series [1] were 60 nM and 4 nM, respectively. The same molecule returned a half-life at 1 µM in series [2] (microsomes) of 0.1 h.

`CS(=O)(=O)Nc1ccc2c(c1)S(=O)(=O)N=C(C1=C(O)[C@@H]3C4CCC(CC4)[C@@H]3N(Cc3ccco3)C1=O)N2` had an EC50 in series [1] of 80 nM. Also, the half-life at 1 µM in series [2] (liver microsomes) is over 1 h. In series [3] (liver microsomes), this molecule had a share remaining at 1 h, 1 µM of 96%.

In the case of `CS(=O)(=O)Nc1ccc2c(c1)S(=O)(=O)N=C(C1=C(O)[C@@H]3C4CCC(CC4)[C@@H]3N(Cc3cccs3)C1=O)N2`, the figures for the half-maximal effective concentration (EC50) in series [4] and in series [1] were 120 nM and 6 nM, respectively. The half-life at 1 µM in series [2] (liver microsomes) stood at 0.85 h.

Turning to `CC(C)CCN1C(=O)C(C2=NS(=O)(=O)c3cc(NS(C)(=O)=O)ccc3N2)=C(O)[C@@H]2[C@H]3CC[C@H](C3)[C@@H]21`, the EC50 in series [4] stood at 72 nM; in series [1], 12 nM. The half-life at 1 µM in series [2] (liver microsomes) was 0.617 h.

For `CS(=O)(=O)Nc1ccc2c(c1)S(=O)(=O)N=C(C1=C(O)[C@@H]3[C@H]4CC[C@H](C4)[C@@H]3N(Cc3cccs3)C1=O)N2`, the EC50 worked out at 66 nM in series [4] and 18 nM in series [1]. This molecule also showed a half-life at 1 µM in series [2] (microsomes) of over 1 h. Besides, the fraction remaining at 1 h, 1 µM in series [3] (microsomes) is 81%.

For the molecule `CS(=O)(=O)Nc1ccc2c(c1)S(=O)(=O)N=C(C1=C(O)[C@@H]3[C@@H]4CC[C@@H](C4)[C@@H]3N(Cc3cccs3)C1=O)N2`, the figures for the EC50 in series [4] and in series [1] were 820 nM and 27 nM, respectively. Moreover, the half-life at 1 µM in series [2] (microsomes) was over 1 h. The amount remaining at 1 h, 1 µM in series [3] (microsomes) worked out at 63%.

In the case of `CS(=O)(=O)Nc1ccc2c(c1)S(=O)(=O)N=C(C1=C(O)[C@@H]3C4CCC(CC4)[C@@H]3N(Cc3ccccc3)C1=O)N2`, the EC50 in series [4] amounted to 55 nM; in series [1] it was 1 nM. Also, the half-life at 1 µM in series [2] (liver microsomes) was over 1 h. The share remaining at 1 h, 1 µM in series [3] (liver microsomes) is 82%.

For `CC(C)(C)CCN1C(=O)C(C2=NS(=O)(=O)c3cc(NS(C)(=O)=O)ccc3N2)=C(O)[C@@H]2[C@H]3CC[C@H](C3)[C@@H]21`, the EC50 amounted to 180 nM in series [4] and 20 nM in series [1]. The molecule also showed a half-life at 1 µM in series [2] (microsomes) of 0.0667 h.
